Results from patent US5516789A, “Lipoxygenase and cyclooxygenase inhibiting compounds” (Abbott Laboratories, priority 1995, dated 1996).

Tests used:
[1] = tested on: LTB4 formation in human whole blood; assay: Calcium ionophore (A23187)-induced LTB4 biosynthesis in human whole blood; type: cell-based; settings: human heparinized whole blood; 15 min preincubation at 37° C.; A23187 50.0 μM, 30 min; read-out: IC50, in vitro inhibitory potency against stimulated LTB4 formation in human whole blood
Method: Inhibition of leukotriene biosynthesis was evaluated in an assay, involving calcium ionophore-induced LTB4 biosynthesis in human whole blood. Human heparinized whole blood was preincubated with test compounds or vehicle for 15 min at 37° C. followed by calcium ionophore A23187 challenge (final concentration of 50.0 μM) and the reaction terminated after 30 min by adding two volumes of methanol. The methanol extract was analyzed for LTB4 using a commercially available immunoassay.

[2] = tested on: biosynthesis of leukotrienes; assay: Rat peritoneal anaphylaxis model, inhibition of leukotriene biosynthesis in vivo after oral administration; settings: oral gavage one hour prior to antigen challenge, @ 15 mg/kg
Method: Inhibition of the biosynthesis of leukotrienes in vivo after oral administration of compound was determined using a rat peritoneal anaphylaxis model similar to that described by Young and coworkers (Young, P. R.; Bell, R. L.; Lanai, C.; Summers, J. B.; Brooks, D. W.; Carter, G. W. (1991): Inhibition of leukotriene biosynthesis in the rat peritoneal cavity. Eur. J. Pharmacol 1991, 205, 259-266). In this model rats were injected intraperitoneally (ip) with rabbit antibody to bovine serum albumin (BSA) and three hours later injected ip with BSA to induce an antigen-antibody response. Rats were sacrificed 15 minutes after this challenge and the peritoneal fluids were collected and analyzed for leukotriene levels. Test compounds were administered by gavage one hour prior to the antigen challenge. To measure immunoreactive leukotriene levels in the various lavage fluids, the samples were diluted 1:3 (v/v) with the EIA buffer containing 100 mM phosphate, 1.5 mM sodium azide, 400 mM sodium chloride, 0.1 mM sodium EDTA and 0.1% BSA, pH 7.4. Methanol, at a final concentration of 22%, was included in the assay standards to compensate for the amount in the biological samples. EIA reagents for cysteinyl leukotrienes determination were purchased from, Cayman Chemical Co., Ann Arbor, Mich. The LTE4 tracer was prepared in-house. The immunoassays for LTE4 were then conducted as recommended by the manufacturer with the exception that volumes were adjusted to accommodate automation using a Cetus Propette (Cetus Corp., San Francisco, Calif.). The EIA was conducted in 96 well microtiter plates (Nunc Roskilde, Denmark) and optical density measured using a microplate reader (Vmax, Molecular Devices Corp., Menlo Park, Calif.). Percent inhibition values were determined by comparing the treatment group to the mean of the control group.

[3] = tested on: TXB2; assay: Dog ex vivo A23187-stimulated blood after oral dosing, inhibition of TXB2; type: in vivo; settings: beagle dog, oral dose of 2 mg/kg, 8 hours after dosing; blood incubated with 50 μM A23187
Excerpt: (§1) Inhibition of both leukotriene formation and prostaglandin formation was also shown in the dog. This was done using the method described by Carter et al. (Carter, G. W., Young, P. R., Albert, D. H., Bouska, J., Dyer, R., Bell, R. L., Summers, J. B. and Brooks, D. W.: J. Pharmacol. Exp. Ther. 256: 929-937, 1991.). Compound was suspended in 0.2% methylcellulose with a Potter-Elvehjem homogenizer equipped with a Teflon-coated pestle and administered orally to beagle dogs (Marshall Farms, North Rose, N.Y.) All animals were fasted overnight before dosing but allowed water ad libitum. Heparinized blood samples were obtained before and at various times after compound administration. Aliquots of blood were incubated at 37° with 50 μM with calcium ionophore, A23187. After 30 minutes, the blood was placed in an ice bath and analyzed for LTB4 and TXB2 as described above.

[4] = tested on: biosynthesis of prostaglandins; assay: Rat pleural inflammation model (A23187), inhibition of prostaglandin biosynthesis in vivo; settings: oral dose of 10 mg/kg, TXB2 by EIA
Method: (§2) Pleural inflammation was induced in male rats following the method of Rao et. al., Life Sci, 1993, 53, 52. Animals were dosed with experimental compounds in 0.2% HPMC one hour prior to the intrapleural injection of the calcium ionophore, A23187. The rats were lightly anesthetized with Penthrane (Abbott Laboratories) and injected intrapleurally with 0.5 ml of 2% ethanol in injectable saline (Abbott Laboratories) containing 20 μg of A23187 (Cal BioChem-Novabiochem). Thirty minutes later the animals were euthanized and the pleural cavities lavaged with ice cold saline. The lavage fluid was then added to ice cold methanol (final methanol concentration 30%) to lyse cells and precipitate protein.
(§3) Cyclooxygenase activity of whole blood was determined by analysis of these samples for TXB2 by EIA (Advanced Magnetics, Cambridge, Mass.).

[5] = tested on: LTB4; assay: Dog ex vivo A23187-stimulated blood after oral dosing, inhibition of LTB4; type: in vivo; settings: beagle dog, oral dose of 2 mg/kg, 8 hours after dosing; blood incubated with 50 μM A23187
Excerpt: as §1

[6] = tested on: biosynthesis of leukotrienes; assay: Rat pleural inflammation model (A23187), inhibition of leukotriene biosynthesis in vivo; settings: oral dose of 10 mg/kg
Method: as §2, §3

| SMILES | IC50 [1] [nM] | % Inhibition (in vivo, leukotriene biosynthesis) [2] [%] | other results |
| --- | --- | --- | --- |
| COc1ccc2cc([C@H](C)C(=O)ON(C(N)=O)C(C)c3ccoc3)ccc2c1 (stereo partly drawn) [Example 1, N-[(S)-2-(6-methoxynaphth-2-yl)propionyloxy]-N-[1-(fur-3-yl)ethyl]urea] | 4000 |  |  |
| CC(C)Cc1ccc(C(C)C(=O)ON(C(N)=O)C(C)c2cc3ccccc3s2)cc1 (centres unmarked) [Example 3, N-[2-(4-(2-methylpropyl)phenyl)propionyloxy]-N -[1-(benzo[b]thien-2-yl)ethyl]urea] | 5800 |  |  |
| COc1ccc2c(c1)c(CC(=O)ON(C(N)=O)C(C)c1cc3ccccc3s1)c(C)n2C(=O)c1ccc(Cl)cc1 (centres unmarked) [Example 4, N-[2-(N-(4-chlorobenzoyl)-5-methoxy-2-methyl-[1H]-indol-3-yl)acetoxy]-N-[1-(benzo[b]thien-2-yl)ethyl] urea] | 1800 |  |  |
| COc1ccc2cc([C@H](C)C(=O)ON(C(N)=O)C(C)C#Cc3ccc(Oc4ccc(F)cc4)o3)ccc2c1 (stereo partly drawn) [Example 18, N-[(S)-2-(6-methoxynaphth-2-yl)propionyloxy]-N-[3-(5-(4-fluorophenoxy)fur-2-yl)-1-methyl-2-propynyl]urea] | 1300 | 40 |  |
| CC(C)Cc1ccc(C(C)C(=O)ON(C(N)=O)C(C)C#Cc2ccc(Oc3ccc(F)cc3)o2)cc1 (centres unmarked) [Example 19, N-[2-(4-(2-methylpropyl)phenyl)propionyloxy]-N-[3-(5-(4-fluorophenoxy)fur-2-yl)-1-methyl-2-propynyl]urea] | 1200 | 41 |  |
| CC(C)Cc1ccc(C(C)C(=O)ON(C(N)=O)C(C)c2ccoc2)cc1 (centres unmarked) [Example 20, N-[2-(4-(2-methylpropyl)phenyl)propionyloxy]-N-[1-(fur-3-yl)ethyl]urea] | 9900 | 43 |  |
| COc1ccc2cc([C@H](C)C(=O)ON(C(N)=O)[C@H](C)C#Cc3ccc(Cc4ccc(F)cc4)s3)ccc2c1 [Example 21, N-[(S)-2-(6-methoxynaphth-2-yl)propionyloxy]-N-[3-(5-(4-fluorophenylmethyl)thien-2-yl)-(R)-1-methyl-2-propynyl]urea] |  |  | inhibition of TXB2 [3]: 47%; inhibition of the biosynthesis of prostaglandins [4]: 68%; inhibition of LTB4 [5]: 54%; inhibition of the biosynthesis of leukotrienes [6]: 71% |
| CC(=O)Oc1ccccc1C(=O)ON(C(N)=O)C(C)C#Cc1ccc(Oc2ccc(F)cc2)o1 (centres unmarked) [Example 37, N-[2-(acetoxybenzoyl)oxy]-N-[3-(5-(4-fluorophenoxy)fur-2-yl)-1-methyl-2-propynyl]urea] | 160 |  |  |
